Results reported in patent publication US8334258B2, “Method for induction and enhancement of apoptosis in tumor cells” (Georg-August-Universität Göttingen Stiftung Öffentlichen …, priority 2006, dated 2012).
Square brackets hold non-standard residues; d marks the D form. pGlu = O=C1CC[C@@H](C(=O)O)N1

What was measured:
[1] = system: MCF-7 breast cancer cell line; assay: Apoptosis assay, flow cytometric analysis of DNA degradation (propidium iodide); format: cell-based, human; settings: MCF-7, FIG. 1 (B)
cancer cells = settings: Gründker et al. 2004; cited from earlier work

For “[D-Lys^6]GnRH-II ([pGlu]HWSH[dK]WYPG-NH2; SMILES NCCCC[C@@H](NC(=O)[C@H](Cc1c[nH]cn1)NC(=O)[C@H](CO)NC(=O)[C@H](Cc1c[nH]c2ccccc12)NC(=O)[C@H](Cc1c[nH]cn1)NC(=O)[C@@H]1CCC(=O)N1)C(=O)N[C@@H](Cc1c[nH]c2ccccc12)C(=O)N[C@@H](Cc1ccc(O)cc1)C(=O)N1CCC[C@H]1C(=O)NCC(N)=O) [GnRH-II agonist]”, the “induction of apoptotic cell death by GnRH-II agonist” value [1] is listed as “did not induce apoptotic cell death” and the “antiproliferative effects after GnRH-I receptor knock-out” value (cancer cells) is listed as “still existing”.
